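Dose response: 5 concentrations. Exposure: 48 h. Format: 96-well plates. Endpoint: linear interpolation; highest concentration if not reached. Here, GI50 denotes the concentration required for 50% inhibition of growth.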 The source made the active and inactive calls. No stated cut-off is given here; in the data, active = GI50 up to about 1.1 µM and inactive = higher.
Key:
Assay in all cases: NCI tumour cell line growth inhibition, 48 h
[1] = test system: NCI-H522
[2] = test system: OVCAR-5
[3] = test system: LOX IMVI
[4] = test system: DMS-273
[5] = test system: HCC 2998
[6] = test system: UACC-257
[7] = test system: OVCAR-8
[8] = test system: Malme-3M
[9] = test system: OVCAR-3
[10] = test system: M19-MEL
[11] = test system: SNB-75
[12] = test system: SNB-19
[13] = test system: SK-MEL-2
[14] = test system: CCRF-CEM
[15] = test system: CAKI-1
[16] = test system: UACC-62
[17] = test system: SK-MEL-5
[18] = test system: NCI-H226
[19] = test system: DMS-114
[20] = test system: NCI-H460
[21] = test system: LXFL 529
[22] = test system: XF498
[23] = test system: RPMI-8226
[24] = test system: HCT-15
[25] = test system: TK-10
[26] = test system: K562
[27] = test system: SF-539
[28] = test system: COLO 205
[29] = test system: HOP-92
[30] = test system: SK-MEL-28
[31] = test system: SR
[32] = test system: HCT-116
[33] = test system: HL-60
[34] = test system: SF-268
[35] = test system: ACHN
[36] = test system: HOP-62
[37] = test system: NCI-H23
[38] = test system: A549
[39] = test system: SNB-78
[40] = test system: KM-20L2
[41] = test system: DLD-1
[42] = test system: UO-31
[43] = test system: SW-620
[44] = test system: SN12C
[45] = test system: EKVX
[46] = test system: 786-0
[47] = test system: M14
[48] = test system: MOLT-4
[49] = test system: KM12
[50] = test system: OVCAR-4
[51] = test system: U-251
[52] = test system: A498
[53] = test system: HOP-18
[54] = test system: SF-295
[55] = test system: RXF 393
[56] = test system: HT-29
[57] = test system: IGROV-1

Measured: GI50

CCN/C(=N\Nc1ccc([N+](=O)[O-])cc1)P(=O)(OC(C)C)OC(C)C
> 100 µM: [24]
inactive: [1] > 100 µM | [2] > 100 µM | [3] > 100 µM | [4] > 100 µM | [5] > 100 µM | [6] 68.1 µM | [7] > 100 µM | [8] 51.2 µM | [9] > 100 µM | [10] > 100 µM | [11] 49.9 µM | [12] > 100 µM | [13] > 100 µM | [14] > 100 µM | [15] > 100 µM | [16] 64 µM | [17] 41.1 µM | [18] 25.8 µM | [19] > 100 µM | [20] > 100 µM | [21] > 100 µM | [22] 66.5 µM | [23] > 100 µM | [25] > 100 µM | [26] > 100 µM | [27] > 100 µM | [28] > 100 µM | [29] 66.5 µM | [30] 99.8 µM | [31] > 100 µM | [32] > 100 µM | [33] > 100 µM | [34] > 100 µM | [35] > 100 µM | [36] 95.9 µM | [37] > 100 µM | [38] > 100 µM | [39] > 100 µM | [40] > 100 µM | [41] > 100 µM | [42] > 100 µM | [43] > 100 µM | [44] > 100 µM | [45] > 100 µM | [46] > 100 µM | [47] > 100 µM | [48] > 100 µM | [49] > 100 µM | [50] 44.2 µM | [51] > 100 µM | [52] > 100 µM

CC1(C)S[C@H](c2ccccc2C(=O)O)N[C@@H]1CC(=O)O
> 100 µM: [24]
inactive: [53] > 100 µM | [1] > 100 µM | [3] > 100 µM | [4] > 100 µM | [6] > 100 µM | [7] > 100 µM | [10] > 100 µM | [11] > 100 µM | [12] > 100 µM | [14] > 100 µM | [16] > 100 µM | [17] > 100 µM | [18] > 100 µM | [19] > 100 µM | [54] > 100 µM | [20] > 100 µM | [21] > 100 µM | [23] > 100 µM | [55] > 100 µM | [26] > 100 µM | [27] > 100 µM | [28] > 100 µM | [30] > 100 µM | [31] > 100 µM | [32] > 100 µM | [33] > 100 µM | [34] > 100 µM | [35] > 100 µM | [36] > 100 µM | [37] > 100 µM | [38] > 100 µM | [39] > 100 µM | [41] > 100 µM | [43] > 100 µM | [44] > 100 µM | [45] > 100 µM | [56] > 100 µM | [46] > 100 µM | [47] > 100 µM | [48] > 100 µM | [49] > 100 µM | [50] > 100 µM | [51] > 100 µM | [52] > 100 µM | [57] > 100 µM

From ChEMBL document CHEMBL1201862, “PubChem BioAssay data set” (2004)
